Experiments:
[1] = biological target: T1, Human Calpain 1/NS1 (Homo sapiens, UniProt P07384); experiment: Calpain inhibition, continuous fluorescence (FRET substrate) assay, calpain 1; format: biochemical; conditions: SensoLyte 520 FRET substrate, 25C
T1 sequence (P07384 1-714): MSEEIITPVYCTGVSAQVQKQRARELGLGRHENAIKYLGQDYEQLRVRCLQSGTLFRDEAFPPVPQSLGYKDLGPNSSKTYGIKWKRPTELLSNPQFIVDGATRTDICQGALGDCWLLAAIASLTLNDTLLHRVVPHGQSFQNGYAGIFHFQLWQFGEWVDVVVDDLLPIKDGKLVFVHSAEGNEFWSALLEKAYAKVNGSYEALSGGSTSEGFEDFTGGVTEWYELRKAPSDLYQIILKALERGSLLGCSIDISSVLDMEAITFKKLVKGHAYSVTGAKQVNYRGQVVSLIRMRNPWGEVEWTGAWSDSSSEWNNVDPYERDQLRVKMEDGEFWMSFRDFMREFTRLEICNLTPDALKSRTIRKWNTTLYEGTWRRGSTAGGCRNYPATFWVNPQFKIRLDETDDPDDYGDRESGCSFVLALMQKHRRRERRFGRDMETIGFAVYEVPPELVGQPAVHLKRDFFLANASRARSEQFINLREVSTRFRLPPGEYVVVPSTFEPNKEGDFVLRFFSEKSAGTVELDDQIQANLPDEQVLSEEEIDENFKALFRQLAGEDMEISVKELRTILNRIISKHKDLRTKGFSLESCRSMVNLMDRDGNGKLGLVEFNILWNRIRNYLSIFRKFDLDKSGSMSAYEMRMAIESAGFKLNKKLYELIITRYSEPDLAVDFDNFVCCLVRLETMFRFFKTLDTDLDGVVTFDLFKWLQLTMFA
T1 sequence (P04632 1-268 partner): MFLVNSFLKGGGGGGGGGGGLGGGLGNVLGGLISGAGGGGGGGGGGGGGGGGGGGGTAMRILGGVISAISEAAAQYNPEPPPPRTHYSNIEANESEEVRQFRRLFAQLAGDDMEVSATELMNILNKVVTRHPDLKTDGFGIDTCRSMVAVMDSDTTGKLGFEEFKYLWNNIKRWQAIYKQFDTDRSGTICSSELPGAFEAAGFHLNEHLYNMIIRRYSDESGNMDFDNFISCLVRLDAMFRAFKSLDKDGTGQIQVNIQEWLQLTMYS
In short: (§1)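 Continuous FRET read-out (ex 490/em 520 nm) of 5-FAM/QXL 520 substrate cleavage, started by adding substrate with CaCl2 for in-situ activation after enzyme–inhibitor preincubation at 25 °C. Buffer was Tris 50 mM pH 7.5, NaCl 100 mM, DTT 1 mM. IC50 fitted (4-parameter) from rates over 1-5 min.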

[2] = biological target: T2, Human Calpain 2/NS1 (Homo sapiens, UniProt P17655); experiment: Calpain inhibition, continuous fluorescence (FRET substrate) assay, calpain 2; format: biochemical; conditions: SensoLyte 520 FRET substrate, 25C
T2 sequence (P17655 1-700): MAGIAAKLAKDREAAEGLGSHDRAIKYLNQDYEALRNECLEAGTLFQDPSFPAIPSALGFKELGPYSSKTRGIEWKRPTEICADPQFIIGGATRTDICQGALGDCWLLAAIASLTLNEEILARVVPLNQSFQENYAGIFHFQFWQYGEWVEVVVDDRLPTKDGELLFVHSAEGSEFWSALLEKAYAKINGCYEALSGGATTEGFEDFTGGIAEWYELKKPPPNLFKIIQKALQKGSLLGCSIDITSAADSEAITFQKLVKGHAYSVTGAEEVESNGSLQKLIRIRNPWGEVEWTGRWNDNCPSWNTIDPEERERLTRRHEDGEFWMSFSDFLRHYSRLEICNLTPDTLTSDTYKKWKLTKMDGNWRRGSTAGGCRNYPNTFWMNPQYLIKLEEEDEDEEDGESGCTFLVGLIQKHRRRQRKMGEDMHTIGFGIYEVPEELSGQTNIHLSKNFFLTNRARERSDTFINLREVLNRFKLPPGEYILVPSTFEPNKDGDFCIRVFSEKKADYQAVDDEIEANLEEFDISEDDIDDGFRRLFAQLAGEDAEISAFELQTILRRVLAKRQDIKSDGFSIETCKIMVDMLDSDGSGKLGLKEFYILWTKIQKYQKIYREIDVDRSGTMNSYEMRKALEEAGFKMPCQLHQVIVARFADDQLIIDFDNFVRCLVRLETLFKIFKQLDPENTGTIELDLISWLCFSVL
T2 sequence (P04632 1-268 partner): T1 sequence (P04632 1-268 partner)
In short: as §1

[3] = biological target: T3, Human Calpain 9/NS1 (Homo sapiens, UniProt O14815); experiment: Calpain inhibition, continuous fluorescence (FRET substrate) assay, calpain 9; format: biochemical; conditions: SensoLyte 520 FRET substrate, 25C
T3 sequence (O14815 1-690): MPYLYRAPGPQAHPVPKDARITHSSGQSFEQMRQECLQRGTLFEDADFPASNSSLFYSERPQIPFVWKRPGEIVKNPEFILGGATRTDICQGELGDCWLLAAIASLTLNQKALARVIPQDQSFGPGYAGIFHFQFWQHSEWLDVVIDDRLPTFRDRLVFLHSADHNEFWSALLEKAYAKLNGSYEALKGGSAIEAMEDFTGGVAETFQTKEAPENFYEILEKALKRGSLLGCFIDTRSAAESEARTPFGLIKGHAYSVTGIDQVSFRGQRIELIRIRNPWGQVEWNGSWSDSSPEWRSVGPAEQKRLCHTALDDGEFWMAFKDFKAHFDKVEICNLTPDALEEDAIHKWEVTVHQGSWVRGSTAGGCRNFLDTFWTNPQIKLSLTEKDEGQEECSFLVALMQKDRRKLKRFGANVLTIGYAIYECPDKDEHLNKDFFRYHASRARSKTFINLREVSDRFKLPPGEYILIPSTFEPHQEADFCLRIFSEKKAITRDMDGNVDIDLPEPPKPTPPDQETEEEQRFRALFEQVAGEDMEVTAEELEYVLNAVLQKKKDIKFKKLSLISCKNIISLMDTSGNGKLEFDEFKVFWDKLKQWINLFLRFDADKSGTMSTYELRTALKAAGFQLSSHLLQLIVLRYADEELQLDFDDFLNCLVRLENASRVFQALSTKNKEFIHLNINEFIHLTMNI
T3 sequence (P04632 1-268 partner): T1 sequence (P04632 1-268 partner)
In short: as §1

[4] = test system: Calpain activity in SH-SY5Y cells; experiment: SH-SY5Y spectrin breakdown product (SBDP-150) western blot assay; format: cell-based; conditions: Homo sapiens, read-out: SH-SY5Y Spectrin IC50
[5] = test system: Calpain activity in SH-SY5Y cells; experiment: SH-SY5Y Suc-LLVY-AMC fluorescence assay; format: cell-based; conditions: Homo sapiens, read-out: SH-SY5Y + AMC IC50
[6] = SH-SY5Y cells, 25 uM A23187, SBDP-150 western blot
[7] = SH-SY5Y cells, 100 uM Suc-LLVY-AMC

Row | IC50 [1] [µM] | IC50 [2] [µM] | IC50 [3] [µM] | IC50 [4, 6] [µM] | IC50 [5, 7] [µM] | SMILES | IC50 ([4]; SH-SY5Y) [µM] | IC50 ([5]; SH-SY5Y) [µM]
1 | < 3 | < 3 | < 3 | > 25 | > 25 | Cn1cc(C(=O)NC(Cc2ccccc2)C(=O)C(N)=O)c(-c2cnc3ccccc3n2)n1 (stereo not drawn) [Compound 13, N-(4-AMINO-3,4-DIOXO-1-PHENYLBUTAN-2-YL)-1-METHYL-3-(QUINOXALIN-2-YL)-1H-PYRAZOLE-4-CARBOXAMIDE] |  | 
2 | 3 to 10 | < 3 | < 3 | > 25 | > 25 | COc1cccc(-c2nn(C)cc2C(=O)NC(Cc2ccccc2)C(=O)C(N)=O)c1OC (stereo not drawn) [Compound 12, N-(4-AMINO-3,4-DIOXO-1-PHENYLBUTAN-2-YL)-3-(2,3-DIMETHOXYPHENYL)-1-METHYL-1H-PYRAZOLE-4-CARBOXAMIDE] |  | 
3 | < 3 | < 3 | < 3 | < 10 | < 10 | Cc1occc1-c1nn(C(F)F)cc1C(=O)NC(Cc1ccccc1)C(=O)C(N)=O (stereo not drawn) [Compound 26, N-(4-AMINO-3,4-DIOXO-1-PHENYLBUTAN-2-YL)-1-(DIFLUOROMETHYL)-3-(2-METHYLFURAN-3-YL)-1H-PYRAZOLE-4-CARBOXAMIDE] |  | 
4 | < 3 | < 3 | < 3 | < 10 | < 10 | Cc1cc(-c2nsnc2C(=O)NC(Cc2ccccc2)C(=O)C(N)=O)c(C)o1 (stereo not drawn) [Compound 23, N-(4-AMINO-3,4-DIOXO-1-PHENYLBUTAN-2-YL)-4-(2,5-DIMETHYLFURAN-3-YL)-1,2,5-THIADIAZOLE-3-CARBOXAMIDE] |  | 
5 | < 3 | < 3 | < 3 | > 25 | < 10 | Cc1occc1-c1nn(C)cc1C(=O)NC(Cc1ccccc1)C(=O)C(N)=O (stereo not drawn) [Compound 28, N-(4-AMINO-3,4-DIOXO-1-PHENYLBUTAN-2-YL)-1-METHYL-3-(2-METHYLFURAN-3-YL)-1H-PYRAZOLE-4-CARBOXAMIDE] |  | 
6 | < 3 | < 3 | < 3 | 10 to 25 | 10 to 25 | CC(C)n1ncc2c(-c3nn(C)cc3C(=O)NC(Cc3ccccc3)C(=O)C(N)=O)cccc21 (stereo not drawn) [Compound 100, N-(4-AMINO-3,4-DIOXO-1-PHENYLBUTAN-2-YL)-3-(1-ISOPROPYL-1H-INDAZOL-4-YL)-1-METHYL-1H-PYRAZOLE-4-CARBOXAMIDE] |  | 
7 | < 3 | < 3 | < 3 | 10 to 25 | 10 to 25 | Cn1cc(C(=O)NC(Cc2ccccc2)C(=O)C(N)=O)c(-c2cccc3nn(C)cc23)n1 (stereo not drawn) [Compound 69, N-(4-AMINO-3,4-DIOXO-1-PHENYLBUTAN-2-YL)-1-METHYL-3-(2-METHYL-2H-INDAZOL-4-YL)-1H-PYRAZOLE-4-CARBOXAMIDE] |  | 
8 | < 3 | < 3 | < 3 | < 10 | < 10 | Cn1cc2c(-c3nn(C(F)F)cc3C(=O)NC(Cc3ccccc3)C(=O)C(N)=O)cccc2n1 (stereo not drawn) [Compound 61, N-(4-AMINO-3,4-DIOXO-1-PHENYLBUTAN-2-YL)-1-(DIFLUOROMETHYL)-3-(2-METHYL-2H-INDAZOL-4-YL)-1H-PYRAZOLE-4-CARBOXAMIDE] |  | 
9 | < 3 | < 3 | < 3 | < 10 | < 10 | Cn1cc(C(=O)NC(Cc2ccc(Cl)cc2)C(=O)C(N)=O)c(-c2ccccc2F)n1 (stereo not drawn) [Compound 97, N-(4-AMINO-1-(4-CHLOROPHENYL)-3,4-DIOXOBUTAN-2-YL)-3-(2-FLUOROPHENYL)-1-METHYL-1H-PYRAZOLE-4-CARBOXAMIDE] |  | 
10 | < 3 | < 3 | < 3 | 10 to 25 | 10 to 25 | O=C(O)C(=O)C(Cc1ccccc1)NC(=O)c1cn(C2CC2)nc1-c1ccccc1 (stereo not drawn) [Compound 60, 3-(1-CYCLOPROPYL-3-PHENYL-1H-PYRAZOLE-4-CARBOXAMIDO)-2-OXO-4-PHENYLBUTANOIC ACID] |  | 
11 | < 3 | < 3 | < 3 | > 25 | > 25 | COc1cc2nccc(-c3nn(C)cc3C(=O)NC(Cc3ccccc3)C(=O)C(N)=O)c2cc1OC (stereo not drawn) [Compound 37, N-(4-AMINO-3,4-DIOXO-1-PHENYLBUTAN-2-YL)-3-(6,7-DIMETHOXYQUINOLIN-4-YL)-1-METHYL-1H-PYRAZOLE-4-CARBOXAMIDE] |  | 
12 | < 3 | < 3 | < 3 | 10 to 25 | < 10 | Cn1cc(C(=O)NC(Cc2ccccc2)C(=O)C(N)=O)c(-c2cc(Cl)oc2Cl)n1 (stereo not drawn) [Compound 15, N-(4-AMINO-3,4-DIOXO-1-PHENYLBUTAN-2-YL)-3-(2,5-DICHLOROFURAN-3-YL)-1-METHYL-1H-PYRAZOLE-4-CARBOXAMIDE] |  | 
13 | < 3 | < 3 | < 3 | > 25 | < 10 | NC(=O)C(=O)C(Cc1ccccc1)NC(=O)c1cn(C(F)F)nc1-c1cccc2cccnc12 (stereo not drawn) [Compound 18, N-(4-AMINO-3,4-DIOXO-1-PHENYLBUTAN-2-YL)-1-(DIFLUOROMETHYL)-3-(QUINOLIN-8-YL)-1H-PYRAZOLE-4-CARBOXAMIDE] |  | 

Row | SMILES | IC50 [1] [µM] | IC50 [2] [µM] | IC50 [3] [µM] | IC50 [4, 6] [µM] | IC50 [5, 7] [µM] | IC50 ([4]; SH-SY5Y) [µM] | IC50 ([5]; SH-SY5Y) [µM]
14 | Cc1cc(C(=O)NC(Cc2ccccc2)C(=O)C(N)=O)n(-c2ncc(-c3ccccc3)cn2)n1 (stereo not drawn) [Compound 30, N-(4-AMINO-3,4-DIOXO-1-PHENYLBUTAN-2-YL)-3-METHYL-1-(5-PHENYLPYRIMIDIN-2-YL)-1H-PYRAZOLE-5-CARBOXAMIDE] | < 3 | < 3 | < 3 |  |  | < 10 | > 25
15 | Cc1cc(C(=O)NC(Cc2ccccc2)C(=O)C(N)=O)nn1-c1ncc(-c2ccccc2)cn1 (stereo not drawn) [Compound 29, N-(4-AMINO-3,4-DIOXO-1-PHENYLBUTAN-2-YL)-5-METHYL-1-(5-PHENYLPYRIMIDIN-2-YL)-1H-PYRAZOLE-3-CARBOXAMIDE] | 3 to 10 | < 3 | 3 to 10 |  |  | > 25 | < 10
